Test results as given in ChEMBL document CHEMBL1132521, “Synthesis and hypoglycemic effect of chrysin derivatives” (Bioorg Med Chem Lett, 1999).

Assays:
[1] = test system: Mus musculus; test: In vivo hypoglycemic activity after administration (45 mg/kg) in mice on day 0 was determined; format: functional
[2] = test system: Mus musculus; test: In vivo hypoglycemic activity after administration (45 mg/kg) in mice on day 7 was determined; format: functional
[3] = Ratio of hypoglycemic activity in mice was tested on day 7.; format: functional
[4] = test system: Mus musculus; test: In vivo hypoglycemic activity after administration (40 mg/kg) in mice on day 0 was determined; format: functional
[5] = test system: Mus musculus; test: In vivo hypoglycemic activity after administration (40 mg/kg) in mice on day 7 was determined; format: functional
[6] = test system: Mus musculus; test: In vivo hypoglycemic activity after administration (50 mg/kg) in mice on day 0 was determined; format: functional
[7] = test system: Mus musculus; test: In vivo hypoglycemic activity after administration (50 mg/kg) in mice on day 7 was determined; format: functional
[8] = test system: Mus musculus; test: Abnormal symptoms was determined in mouse after oral administration of 100 mg/kg; - sign indicates abnormal symptoms in treated mouse; format: functional, organism-based; design: dose 100 mg/kg
[9] = test system: Mus musculus; test: Abnormal symptoms was determined in mouse after oral administration of 20 mg/kg; - sign indicates abnormal symptoms in treated mouse; format: functional, organism-based; design: dose 20 mg/kg
[10] = test system: Mus musculus; test: Abnormal symptoms was determined in mouse after oral administration of 500 mg/kg; - sign indicates abnormal symptoms in treated mouse; format: functional, organism-based; design: dose 500 mg/kg
[11] = test system: Mus musculus; test: Abnormal symptoms was determined in mouse after oral administration of 5 mg/kg; - sign indicates abnormal symptoms in treated mouse; format: functional, organism-based; design: dose 5 mg/kg
[12] = test system: Mus musculus; test: Body weight was determined in mouse after oral administration of 500 mg/kg on day 0; format: functional
[13] = test system: Mus musculus; test: Body weight was determined in mouse after oral administration of 500 mg/kg on day 7; format: functional
[14] = test system: Mus musculus; test: Body weight was determined in mouse after oral administration of 5 mg/kg on day 0; format: functional
[15] = test system: Mus musculus; test: Body weight was determined in mouse after oral administration of 5 mg/kg on day 7; format: functional
[16] = test system: Mus musculus; test: Body weight was determined in mouse after oral administration of 100 mg/kg on day 0; format: functional
[17] = test system: Mus musculus; test: Body weight was determined in mouse after oral administration of 100 mg/kg on day 7; format: functional
[18] = test system: Mus musculus; test: Body weight was determined in mouse after oral administration of 20 mg/kg on day 0; format: functional
[19] = test system: Mus musculus; test: Body weight was determined in mouse after oral administration of 20 mg/kg on day 7; format: functional
[20] = test system: Mus musculus; test: Daily food consumption was determined in mouse after oral administration of 100 mg/kg; format: functional
[21] = test system: Mus musculus; test: Daily food consumption was determined in mouse after oral administration of 20 mg/kg; format: functional
[22] = test system: Mus musculus; test: Daily food consumption was determined in mouse after oral administration of 500 mg/kg; format: functional
[23] = test system: Mus musculus; test: Daily water consumption was determined in mouse after oral administration of 100 mg/kg; format: functional
[24] = test system: Mus musculus; test: Daily water consumption was determined in mouse after oral administration of 20 mg/kg; format: functional
[25] = test system: Mus musculus; test: Daily water consumption was determined in mouse after oral administration of 500 mg/kg; format: functional
[26] = test system: Mus musculus; test: Daily water consumption was determined in mouse after oral administration of 5 mg/kg; format: functional
[27] = test system: Rattus norvegicus; test: Abnormal symptoms was determined in rat after oral administration of 500 mg/kg; - sign indicates abnormal symptoms in treated mouse; format: functional, organism-based; design: dose 500 mg/kg
[28] = test system: Rattus norvegicus; test: Body weight was determined in rat after oral administration of 500 mg/kg on day 0; format: functional
[29] = test system: Rattus norvegicus; test: Body weight was determined in rat after oral administration of 500 mg/kg on day 7; format: functional
[30] = test system: Rattus norvegicus; test: Daily food consumption was determined in rat after oral administration of 500 mg/kg; format: functional
[31] = test system: Rattus norvegicus; test: Kidney weight was determined in rat after oral administration of 500 mg/kg; format: functional
[32] = test system: Rattus norvegicus; test: Liver weight was determined in rat after oral administration of 500 mg/kg; format: functional; design: unit not given beside the values
[33] = test system: Rattus norvegicus; test: Lung weight was determined in rat after oral administration of 500 mg/kg; format: functional; design: unit not given beside the values
[34] = test system: Mus musculus; test: Daily food consumption was determined in mouse after oral administration of 5 mg/kg; format: functional
[35] = test system: Rattus norvegicus; test: Spleen weight was determined in rat after oral administration of 500 mg/kg; format: functional; design: unit not given beside the values
[36] = test system: Rattus norvegicus; test: Daily water consumption was determined in rat after oral administration of 500 mg/kg; format: functional
[37] = test system: Mus musculus; test: In vivo hypoglycemic activity after administration (42 mg/kg) in mice on day 0 was determined; format: functional
[38] = test system: Mus musculus; test: In vivo hypoglycemic activity after administration (42 mg/kg) in mice on day 7 was determined; format: functional

Row | Compound | Ratio [3] | Blood glucose [4] [mg/dL] | Blood glucose [5] [mg/dL] | Blood glucose [6] [mg/dL] | Blood glucose [7] [mg/dL] | Activity [8] | Activity [9] | Activity [10] | Activity [11] | Body weight [12] | Body weight [13] | Body weight [14] | Body weight [15] | Body weight [16] | Body weight [17] | Body weight [18] | Body weight [19] | Food intake [20] | Food intake [21] | Food intake [22] | also measured
1 | CCOc1cc(OCC)c2c(=O)cc(-c3ccccc3)oc2c1 | 91.7 | – | – | – | – | – | – | – | – | – | – | – | – | – | – | – | – | – | – | – | Blood glucose [1]: 436.6 mg/dL; Blood glucose [2]: 400.5 mg/dL
2 | O=C(Oc1cc(O)c2c(=O)cc(-c3ccccc3)oc2c1)c1ccc(F)cc1 | 79.3 | 458.2 | 362.5 | – | – | – | – | – | – | – | – | – | – | – | – | – | – | – | – | – | –
3 | CC(=O)Oc1ccccc1C(=O)Oc1cc(O)c2c(=O)cc(-c3ccccc3)oc2c1 | 102.4 | 489.3 | 500.9 | – | – | – | – | – | – | – | – | – | – | – | – | – | – | – | – | – | –
4 | COc1cc(OC)c2c(=O)cc(-c3ccccc3)oc2c1 [CHRYSIN DIMETHYL ETHER] | 89.9 | 444.4 | 399.5 | – | – | – | – | – | – | – | – | – | – | – | – | – | – | – | – | – | –
5 | CCCCOc1cc(O)c2c(=O)cc(-c3ccccc3)oc2c1 | 46.3 | – | – | 545.6 | 252.4 | abnormal symptoms in treated mouse | abnormal symptoms in treated mouse | abnormal symptoms in treated mouse | abnormal symptoms in treated mouse | 24.3 | 31.3 | 24.9 | 32.7 | 23.5 | 31 | 23.8 | 30.6 | 50.53 | 52.81 | 50.4 | Water consumption [23]: 80.92 mL; Water consumption [24]: 79.33 mL; Water consumption [25]: 82.83 mL; Water consumption [26]: 82.5 mL; Activity [27]: abnormal symptoms in treated mouse; Body weight [28]: 235; Body weight [29]: 293.3; Food intake [30]: 113.58; Organ weight [31]: 1.04; Organ weight [32]: 10.74; Organ weight [33]: 1.22; Food intake [34]: 51.91; Organ weight [35]: 0.71; Water consumption [36]: 197.16 mL
6 | CCCCCCCCOc1cc(O)c2c(=O)cc(-c3ccccc3)oc2c1 | 51.4 | – | – | 411.2 | 211.4 | abnormal symptoms in treated mouse | abnormal symptoms in treated mouse | abnormal symptoms in treated mouse | abnormal symptoms in treated mouse | 24 | 30.1 | 23.8 | 30.8 | 24.8 | 31.6 | 25.5 | 32.1 | 51.41 g | 52.57 g | 50.6 g | Water consumption [23]: 82.83 mL; Water consumption [24]: 81.67 mL; Water consumption [25]: 80.75 mL; Water consumption [26]: 79.83 mL; Activity [27]: abnormal symptoms in treated mouse; Body weight [28]: 230.8; Body weight [29]: 290.8; Food intake [30]: 113.08 g; Organ weight [32]: 9.96; Organ weight [33]: 1.26; Food intake [34]: 51.28 g; Organ weight [35]: 0.69; Water consumption [36]: 205.91 mL
7 | CCCOc1cc(OCCC)c2c(=O)cc(-c3ccccc3)oc2c1 | 64 | – | – | – | – | abnormal symptoms in treated mouse | abnormal symptoms in treated mouse | abnormal symptoms in treated mouse | abnormal symptoms in treated mouse | 22.7 | 29.5 | 22.3 | 28.2 | 25.2 | 32.1 | 25.3 | 31.9 | 49.77 g | 53.2 g | 49.87 g | Blood glucose [37]: 448.3 mg/dL; Blood glucose [38]: 287 mg/dL; Water consumption [23]: 81.75 mL; Water consumption [24]: 80.92 mL; Water consumption [25]: 81.75 mL; Water consumption [26]: 80 mL; Activity [27]: abnormal symptoms in treated mouse; Body weight [28]: 235.8; Body weight [29]: 300.8; Food intake [30]: 115.41 g; Organ weight [31]: 0.97; Organ weight [32]: 9.64; Organ weight [33]: 1.23; Food intake [34]: 48.09 g; Organ weight [35]: 0.61; Water consumption [36]: 218.5 mL
8 | O=C(/C=C/c1ccccc1)Oc1cc(O)c2c(=O)cc(-c3ccccc3)oc2c1 | 92.6 | – | – | 440.6 | 407.9 | – | – | – | – | – | – | – | – | – | – | – | – | – | – | – | –
9 | O=c1cc(-c2ccccc2)oc2cc(O)cc(O)c12 [CHRYSIN] | 104.4 | – | – | – | – | – | – | – | – | – | – | – | – | – | – | – | – | – | – | – | Blood glucose [1]: 482.4 mg/dL; Blood glucose [2]: 503.5 mg/dL
